Test results as given in ChEMBL document CHEMBL5625174, “Are inhibitors of histone deacetylase 8 (HDAC8) effective in hematological cancers especially acute myeloid leukemia (AML) and acute lymphoblastic leukemia (ALL)?” (Eur J Med Chem, 2023).
One block for each compound: values may come before it. Square brackets hold non-standard residues; d marks the D form. Peptide text beside a SMILES is read from it. * marks the point of attachment. Asu = N[C@@H](CCCCCC(=O)O)C(=O)O; β3hL = CC(C)C[C@H](N)CC(=O)O; NHOH = ON*

Columns and labels:
[1] = molecular target: T1, Histone deacetylase 8 (Homo sapiens) (UniProt Q9BY41); assay: Inhibition of His-tagged recombinant HDAC8 (unknown origin) at 10 uM using Boc-Lys(triflouroacetyl)-AMC as fluorogenic substrate pre-incubated for 30 mins followed by substrate addition and measured after 30 mins by fluorescence based analysis relative to control; details: time 60.0 min
T1 sequence (whole entry): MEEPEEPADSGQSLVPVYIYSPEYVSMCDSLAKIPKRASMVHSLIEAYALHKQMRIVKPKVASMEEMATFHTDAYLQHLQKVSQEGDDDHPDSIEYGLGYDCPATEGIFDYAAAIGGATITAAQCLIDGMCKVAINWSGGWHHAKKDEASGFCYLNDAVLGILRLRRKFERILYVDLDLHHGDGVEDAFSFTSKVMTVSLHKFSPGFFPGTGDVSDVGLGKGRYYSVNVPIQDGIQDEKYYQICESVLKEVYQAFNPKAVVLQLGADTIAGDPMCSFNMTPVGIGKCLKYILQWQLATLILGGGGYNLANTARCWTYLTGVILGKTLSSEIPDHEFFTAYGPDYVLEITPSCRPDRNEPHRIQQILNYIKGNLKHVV

[2] = molecular target: T2, Histone deacetylase 8 (Homo sapiens, UniProt Q9BY41); assay: Inhibition of human recombinant HDAC8 using AMC-K(Ac)GL as substrate by fluorescence based assay
T2 sequence (Q9BY41 whole entry): T1 sequence (whole entry)

[3] = tested on: Jurkat E6.1; assay: Cytotoxicity against human Jurkat E6.1 cells assessed as reduction in cell viability incubated for 72 hrs by MTT assay; type: functional, cell-based; details: Jurkat E6.1, 72 h
[4] = molecular target: T2, Histone deacetylase 8; assay: Inhibition of human recombinant HDAC8 using fluorogenic HDAC substrate class 2A preincubated for 30 mins followed by substrate addition and measured after 15 mins by fluorogenic assay
[5] = Inhibition of HDAC6 (unknown origin) assessed as release of fluorogenic AMC pre-incubated for 15 mins followed by addition of trypsin and substrate measured after 60 mins microplate reader analysis; set-up: species or system Homo sapiens
[6] = tested on: Jurkat; assay: cells; type: functional; details: Homo sapiens
Description: Growth inhibition of human Jurkat cells

[7] = tested on: MOLT-4; assay: Cytotoxicity against human MOLT-4 cells assessed as reduction in cell viability; type: functional, cell-based
[8] = molecular target: Histone deacetylase; assay: Inhibition of HDAC (unknown origin) using Fluoro-Substrate Peptide as substrate by fluorescence assay; type: protein assay, Homo sapiens
[9] = tested on: Jurkat E6.1; assay: Cytotoxicity against human Jurkat E6.1 cells assessed as reduction in cell viability; type: functional, cell-based
[10] = tested on: U-937; assay: Cytotoxicity against human U-937 cells assessed as reduction in cell viability; type: functional, cell-based
[11] = molecular target: T2, Histone deacetylase 8; assay: Inhibition of HDAC8 (unknown origin) by fluorescence based assay
[12] = molecular target: Histone deacetylase 1 (Homo sapiens, UniProt Q13547); assay: Inhibition of HDAC1 (unknown origin) using Ac-Leu-Gly-Lys(Ac)-AMC as substrate pre-incubated for 30 mins followed by substrate addition and measured after 30 mins by fluorescence based analysis
Histone deacetylase 1, sequence (Q13547 whole entry): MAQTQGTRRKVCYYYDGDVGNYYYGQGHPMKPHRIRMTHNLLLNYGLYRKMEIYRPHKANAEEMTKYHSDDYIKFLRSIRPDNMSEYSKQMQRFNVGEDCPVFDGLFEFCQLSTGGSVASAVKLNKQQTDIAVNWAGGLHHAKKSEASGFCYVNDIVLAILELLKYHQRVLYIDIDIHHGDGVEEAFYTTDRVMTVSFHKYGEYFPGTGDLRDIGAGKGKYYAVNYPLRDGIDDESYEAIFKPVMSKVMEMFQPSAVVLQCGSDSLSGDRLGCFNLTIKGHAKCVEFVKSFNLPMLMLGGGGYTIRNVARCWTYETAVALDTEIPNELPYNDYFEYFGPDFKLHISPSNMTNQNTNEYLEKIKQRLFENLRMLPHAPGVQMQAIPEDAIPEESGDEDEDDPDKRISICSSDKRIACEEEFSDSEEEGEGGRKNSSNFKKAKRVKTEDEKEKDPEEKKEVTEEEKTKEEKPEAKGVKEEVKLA

[13] = tested on: HH; assay: Antiproliferative activity against human HH cells assessed as cell growth inhibition measured after 72 hrs by CCK-8 assay; type: functional
[14] = tested on: MT4; assay: Cytotoxicity against human MT4 cells assessed as inhibition of cell growth incubated for 72 hrs by CCK-8 assay; type: functional
[15] = tested on: HuT78; assay: Anti-proliferative activity against human HuT78 cells assessed as growth inhibition incubated for 72 hrs by alamar blue staining based fluorometric assay; type: functional
[16] = tested on: Jurkat; assay: Antiproliferative activity against human Jurkat cells assessed as cell growth inhibition measured after 72 hrs by CCK-8 assay; type: functional

SMILES: CC(C)C[C@H](NC(=O)[C@@H](O)[C@H](N)Cc1ccccc1)C(=O)NCCCCCC(=O)Nc1ccc(NC(=O)CCCCCCC(=O)NO)cc1
- inhibition [1]: 90%

SMILES: CCCCNC(=O)[C@H](CCC(=O)NO)NC(=O)Cc1ccc(Cl)cc1Cl
- IC50 [3]: < 50 µM

SMILES: CC(C)CNC(=O)[C@H](CCC(=O)NO)NC(=O)Cc1ccccc1F
- IC50 [3]: > 50 µM

SMILES: CCCCCCNC(=O)[C@H](CCC(=O)NO)NC(=O)Cc1ccc(Br)cc1
- IC50 [3]: < 50 µM

SMILES: COc1ccc(CNC(=O)[C@H](CCC(=O)O)NC(=O)Cc2ccc(Br)cc2)cc1
- IC50 [7]: < 35 µM
- IC50 [8]: > 10 µM
- IC50 [9]: < 35 µM
- IC50 [10]: > 35 µM
- IC50 [11]: ≤ 10 µM

SMILES: CCCCCCNC(=O)[C@H](CCC(=O)O)NC(=O)Cc1ccc(Cl)cc1Cl
- IC50 [7]: ≤ 35 µM
- IC50 [8]: > 10 µM
- IC50 [9]: ≤ 35 µM
- IC50 [10]: ≤ 35 µM
- IC50 [11]: ≤ 10 µM

SMILES: CCCCCCNC(=O)[C@H](CCC(=O)O)NC(=O)Cc1ccc(Br)cc1
- IC50 [7]: ≤ 35 µM
- IC50 [8]: > 10 µM
- IC50 [9]: ≤ 35 µM
- IC50 [10]: > 35 µM
- IC50 [11]: ≤ 10 µM

SMILES: O=C(O)CC[C@H](NC(=O)Cc1ccc(Br)cc1)C(=O)NCc1ccc(Cl)c(Cl)c1
- IC50 [7]: < 35 µM
- IC50 [8]: > 10 µM
- IC50 [9]: < 35 µM
- IC50 [10]: > 35 µM
- IC50 [11]: ≤ 10 µM

SMILES: CC(C)C[C@H](NC(=O)[C@@H](O)[C@H](N)Cc1ccccc1)C(=O)NCCOCCOCCNC(=O)c1cccc(C(=O)NO)c1
- inhibition [1]: 64%

SMILES: CCCCCCNC(=O)[C@H](CCC(=O)NO)NC(=O)Cc1ccccc1
- IC50 [3]: < 50 µM

SMILES: O=C(CC[C@H](NC(=O)Cc1ccc(Cl)cc1Cl)C(=O)Nc1ccccc1)NO
- IC50 [3]: < 50 µM

SMILES: CCCCCNC(=O)[C@H](CCC(=O)NO)NC(=O)Cc1ccccc1
- IC50 [3]: < 50 µM

SMILES: CCCCCCNC(=O)[C@H](CCC(=O)O)NC(=O)Cc1ccc(Cl)cc1
- IC50 [7]: ≤ 35 µM
- IC50 [8]: > 10 µM
- IC50 [9]: ≤ 35 µM
- IC50 [10]: ≤ 35 µM
- IC50 [11]: ≤ 10 µM

More lines, main results first:

- IC50 [2]: 0.12 µM
SMILES: O=C(NO)c1cccc(-c2nc(CSc3ccccc3)no2)c1

- IC50 [4]: 0.0511 µM
SMILES: O=C1CN[C@H](Cc2cc3ccccc3[nH]2)C(=O)N1

- IC50 [5]: 2.9 µM
- GI50 [6]: 2.4 µM
SMILES: COc1ccc(Cn2ccc3ccc(C(=O)NO)cc32)cc1

- IC50 [8]: > 10 µM
- IC50 [11]: > 10 µM
SMILES: CCCCCCNC(=O)[C@H](CCC(=O)O)NC(=O)Cc1ccc(-c2ccccc2)cc1

- IC50 [4]: 0.0108 µM
SMILES: O=C1CN[C@@H](Cc2cc3ccccc3[nH]2)C(=O)N1

- IC50 [8]: > 10 µM
- IC50 [11]: ≤ 10 µM
SMILES: O=C(O)CC[C@H](NC(=O)Cc1ccc(Cl)cc1)C(=O)NCc1ccccc1

- IC50 [2]: 0.12 µM
SMILES: CC(C)C[C@H]1CC(=O)N[C@@H](C)C(=O)N[C@@H](CCCCCC(=O)NO)C(=O)N[C@@H](Cc2c[nH]c3ccccc23)C(=O)N1 (cyclo([Asu](NHOH)W[β3hL]A))

- IC50 [5]: 55 µM
- IC50 [12]: > 100 µM
SMILES: O=C(NO)c1ccc(-c2cccc3ccccc23)cc1

- IC50 [4]: 0.0884 µM
SMILES: CSCC[C@@H]1NCC(=O)NC1=O

- IC50 [5]: 2.4 µM
- GI50 [16]: 2.8 µM
SMILES: O=C(NO)c1cccc(-c2cn(CSc3ccccc3)nn2)c1
- GI50 [13]: 21 µM
- GI50 [14]: 22 µM
- GI50 [15]: 32 µM

- IC50 [8]: > 10 µM
- IC50 [11]: ≤ 10 µM
SMILES: O=C(O)CC[C@H](NC(=O)Cc1ccc(Br)cc1)C(=O)NCc1ccccc1
- IC50 [7]: ≤ 35 µM
- IC50 [9]: ≤ 35 µM
- IC50 [10]: > 35 µM
